Test results reported in US5723319A, “Cultured cell line that inducibly expresses the hepatitis B virus genome, and uses thereof for screening antiviral substances” (Avid Therapeutics, Inc., priority 1995, dated 1998).
Read-outs that look alike come from different tables or passages of the source.

What was measured:
HBV (2.2.15 cells) = assay: Inhibition of release of HBV DNA into the extracellular environment, 2.2.15 cells (dot blot); format: cell-based, hepatitis B virus
Source text: The current state of, the art for the detection of HBV in tissue culture is the HepG2 or 2.2.15 cell line assay (Korba & Milman, Antiviral Research 15: 217-228 1991). This assay uses HepG2 cells (a human hepatoblastoma cell line) stably transfected with DNA from a clone containing two tandemly arranged copies of the HBV genome. […] The 2.2.15 cell line produces HBV at levels sufficient for measurement by conventional detection methods (Aoki-Sef et al., J. Infect. Dis. 164: 843-851 1988; Sells et al., Proc. Natl. Acad. Sci. USA 84: 4641-4644 1988).
Cells were seeded in 24 well plates at 4×10^5 cells/well and were grown to 100% confluency (approximately 3 days). At this time (day 0), cells were washed 3 times with PBS and 0.5 ml of medium containing various concentrations of known HBV inhibitors (ddC, 3TC and CDG). For each compound, four different concentrations and a negative control were tested, in the presence or in the absence of tetracycline. Typically, the medium was replaced 24 hours prior to collection with samples being collected four, eight, and twelve days after induction. Media were clarified by centrifugation and stored at -70° C. for further analysis. The procedure for susceptibility testing in a 96-well format was essentially the same as for the 24 well plate format except that cells were seeded in 96 well plates at 5×10^4 cells/well, 5 concentrations of drug were tested, and the volume of medium used was 100 μl. In addition, samples were removed from the wells for HBV DNA determination either with and without medium changes 24 hours prior to collection.
The samples were evaluated to determine the effective concentration of the inhibitors that inhibited the release of HBV DNA by 50%. This value is referred to as the EC50 for the compound.

HBV (Hep AD38 cells) = assay: Inhibition of release of HBV DNA into the extracellular environment, Hep AD38 cells (dot blot); format: cell-based, human hepatitis B virus
Experimental: Samples were analyzed by dot blot hybridization to detect the presence HBV DNA in the cell culture supernatants (Korba and Milman, 1991, supra). Supernatants were mixed with an equal volume of denaturation solution (1M NaOH/10× SSC) and incubated for 20 minutes at room temperature. The denatured supernatant mixture was blotted on a nylon membrane (Amersham, Arlington Heights, Ill.) using a dot blot apparatus (Schleicher and Schuell, Keene, N.H.). Samples were neutralized by washing the membrane with 0.5 ml of 1M Tris, pH 7.2/2M NaCl followed by 0.5 ml of 20× SSC. Filters were then rinsed in 2× SSC, subjected to UV light crosslinking (Stratalinker), and prehybridized in 5× SSC, 5× Denhardt's Reagent, 20 mM NaPO4, pH 6.5, 50% formamide, 1% SDS, and 250 mg/L salmon sperm DNA for 1 hour at 42° C.
A 2.8 Kb fragment corresponding to the HBV sequences of pCMAYW was generated by PCR amplification, and served as a template for the synthesis of [α-^32 P]dCTP labelled hybridization probes by random priming according to the vendor's specifications (Megaprime DNA Labelling System, Amersham). Blots were hybridized with the radioactively labelled probe for sixteen hours at 42° C. The filters were then washed twice in 2× SSC/0.1% SDS at 25° C. for 20 minutes each and twice in 0.2× SSC/0.1% SDS at 65° C. for 20 minutes each. Radioactivity for individual samples was quantitated with a Fuji MacBAS 1000 Phosphorimager.
Cells were seeded in 24 well plates at 4×10^5 cells/well and were grown to 100% confluency (approximately 3 days). At this time (day 0), cells were washed 3 times with PBS and 0.5 ml of medium containing various concentrations of known HBV inhibitors (ddC, 3TC and CDG). For each compound, four different concentrations and a negative control were tested, in the presence or in the absence of tetracycline. Typically, the medium was replaced 24 hours prior to collection with samples being collected four, eight, and twelve days after induction. […]
The samples were evaluated to determine the effective concentration of the inhibitors that inhibited the release of HBV DNA by 50%. […]

[1] = test system: HBV DNA intermediates (Hep AD38 cells); assay: Southern blot of HBV DNA replicative intermediates (cccDNA, replicative intermediates, core DNA), Hep AD38 cells; format: cell-based, human hepatitis B virus; conditions: Hep AD38, presence of tetracycline
Experimental: For each of the Hep AD38, HepG2 and 2.2.15 cell lines, two 60 mm plates were seeded with 3×10^6 cells and allowed to grow as described above. When the cells became confluent, the medium was changed and tetracycline was removed from the medium on one of the plates. After a six day induction period, the medium again was removed and the cells were washed with PBS. Cells were then incubated at 37° C. for 10 minutes with 1 ml lysis buffer (0.5% SDS, 10 mM Tris-HCl, pH 7.5, 10 mM EDTA, 0.15M NaCl). The cell solutions were transferred to 1.5 ml Eppendorf tubes, adjusted to 0.5 M KCl, and incubated on ice for 15 minutes. The lysates were then clarified by high-speed centrifugation for 15 minutes at 4° C., and the supernatants were collected. DNA was isolated from the supernatants by phenol extraction followed by cold ethanol precipitation. Pelleted DNA was resuspended in 40 μl TE buffer.
For each cell line, two 60 mm plates were seeded with 3×10^6 cells. When the cells reached full confluency, the medium was changed and tetracycline was removed from the medium of one of the plates. After a 7 day induction period, the medium was removed and cells were washed with PBS. Cells were lysed by the addition of 0.6 ml of transfection lysis buffer (50 mM Tris, pH 8.0, 1 mM EDTA, 1% NP40) to each plate. The mixture was pipetted thoroughly to ensure complete cell lysis. […]

[2] = test system: HBV Dane particles (2.2.15 cells); assay: Induction of HBV Dane particles, 2.2.15 cells +/- tetracycline; format: cell-based, hepatitis B virus
Experimental: (§1) For each cell line, two 60 mm plates were seeded with 3×10^6 cells. When the cells reached full confluency, the medium was changed and tetracycline was removed from the medium of one the plates. […] The medium was adjusted to 10% glycerol (by volume) and incubated one hour at 4° C. Dane particles were pelleted by […] centrifugation and resuspended in PBS. The viral capsid was disrupted with 1% NP-40 (Sigma Chemical Co., St Louis, Mo.) and the capsid proteins were digested with proteinase K (50 μg/ml). The viral DNA was analyzed by dot blot hybridization using a radioactively labeled probe specific for HBV DNA.

[3] = test system: HBV Dane particles (HepG2 cells); assay: Induction of HBV Dane particles, HepG2 cells +/- tetracycline; format: cell-based, hepatitis B virus
Experimental: as §1

[4] = test system: HBV Dane particles (Hep AD38 cells); assay: Induction of HBV Dane particles, Hep AD38 cells +/- tetracycline; format: cell-based, human hepatitis B virus
Experimental: as §1

## Nc1ccn([C@@H]2CS[C@H](CO)O2)c(=O)n1 [3TC]
HBV (2.2.15 cells); Hepatitis B virus
  EC50: 50 nM
HBV (Hep AD38 cells); Hepatitis B virus, HePAD38
  EC50: 20 nM

## Nc1nc2c(ncn2C2CC(O)C(CO)C2)c(=O)[nH]1 (stereo not shown) [CDG]
HBV (2.2.15 cells)
  EC50: 19 nM
HBV (Hep AD38 cells)
  EC50: 11 nM

## Nc1ccn([C@H]2CC[C@@H](CO)O2)c(=O)n1 [ddC]
HBV (2.2.15 cells); Hepatitis B virus
  EC50: 6000 nM
HBV (Hep AD38 cells); Hepatitis B virus, HePAD38
  EC50: 8000 nM

## CN(C)C1C(=O)C(C(N)=O)=C(O)C2(O)C(=O)C3=C(O)c4c(O)cccc4C(C)(O)C3CC12 (stereo not shown) [tetracycline]
[1]
  HBV DNA intermediates made: not made
[2]; 2.2.15, +Tet, Day 7
  HBV DNA released (Dane particles): 1.8 × 10^4 CPM/well
[2]; 2.2.15, +Tet., Day 4
  HBV DNA released (Dane particles): 4 × 10^3 CPM/well
[2]; 2.2.15, presence or absence of tetracycline
  response to the presence or absence of tetracycline with regard to release of HBV DNA into the medium: no response
[3]; HepG2, +Tet, Day 7
  HBV DNA released (Dane particles): 0 CPM/well
[3]; HepG2, +Tet., Day 4
  HBV DNA released (Dane particles): 0 CPM/well
[4]; Hep AD38, 0.3 μg/ml of tetracycline
  production of HBV Dane particles: completely inhibits
[4]; Hep AD38, +Tet, Day 7
  HBV DNA released (Dane particles): 0 CPM/well
[4]; Hep AD38, +Tet., Day 4
  HBV DNA released (Dane particles): 0 CPM/well
[4]; Hep AD38, grown in the presence of tetracycline
  release of HBV DNA into the extracellular environment: do not release HBV DNA
